{
  "source": "patent US12303724B2",
  "about": "“Non-adult human dosing of anti-CD30 antibody-drug conjugates for treatment of hematological or lymphoid cancer” (priority 2016, dated 2025)",
  "type_in_all_cases": "in vivo, human",
  "key": {"[1]": {"system": "relapsed or refractory (r/r) Hodgkin Lymphoma (HL) or systemic anaplastic large-cell lymphoma (sALCL)", "assay": "Example 2: BSA-based BV monotherapy in pediatric patients", "procedure": "Pediatric study subjects are administered BV (administered IV infusion, once every three weeks (21 days)) at a dose of 71.5 mg/m^2. Each 21-day treatment cycle is composed of 1 day study drug treatment, followed by a monitoring period of 20 days. Patients may receive BV for up to 16 cycles. Objective response rates (ORR; complete remission (CR)+ partial remission (PR)) are determined by an independent review facility (IRF) using PET, CT, MRI and, clinical assessment according to the International Working Group (IWG) Revised Response Criteria for Malignant Lymphoma. Time to progression (from the first dose of study treatment to the date of first documented progressive disease), time to response (from the first dose of study treatment to the date of first documentation of a complete or partial response), duration of response (from the date of first documentation of a response to the date of progressive disease), event-free survival (from first dose until treatment failure), progression-free survival (PFS; from the first dose of study treatment to disease progression or death), and overall survival (OS; from the first dose of study treatment to date of death) are also evaluated. Patients are followed for progression-free survival (PFS) and overall survival (OS) every 12 weeks for 12 months after the end of treatment (EOT) visit. […]"}, "[2]": {"system": "CD30-positive cutaneous t-cell lymphomas", "assay": "Example 5: BSA-based BV versus methotrexate or bexarotene in pediatric patients", "details": "BV 71.5 mg/m^2 IV every three weeks, monotherapy, up to 16 cycles", "procedure": "Pediatric (non adult human) patients with CD30-positive cutaneous t-cell lymphomas (Primary Cutaneous Anaplastic Large Cell Lymphoma, Mycosis Fungoides, Cutaneous T-Cell Lymphoma) are provided. Study subjects are randomly assigned to one of the following treatments: 1) BV (administered IV, once every three weeks (21 days)) at a dose of 71.5 mg/m^2 as monotherapy for up to a total of 16 cycles; or 2) physician's choice of methotrexate or bexarotene (methotrexate is administered orally (5 to 50 mg) once weekly; dose adjustment is guided by patient response and toxicity or bexarotene is administered orally (300 mg/m^2) once daily with meals).\nThe proportion of patients achieving an objective response (ORR; complete remission (CR)+partial remission (PR)) that lasts at least 4 months is evaluated. The proportion of patients achieving complete response (CR) and progression-free survival (PFS) are also evaluated."}, "[3]": {"assay": "Phase 1/2 pediatric study of brentuximab vedotin: serum pharmacokinetics", "details": "pediatric patients, 1.4 or 1.8 mg/kg body weight every 3 weeks, AUC versus age (FIG. 1A)", "description": "This study had assessment of pharmacokinetics of BV in pediatric patients as one of its objectives.\nThe goal of phase 1 portion of the study was to establish safety and define MTD (maximum tolerated dose) of brentuximab vedotin in pediatric hematological malignancies with high expression of CD30, both HL and ALCL were included in the phase 1 study population. The phase 2 study was designed to administer brentuximab vedotin at the RP2D (recommended phase II dose) determined as the MTD [Maximum Tolerated Dose] in the phase 1 portion of the study.\nBlood samples for determining BV levels from the serum were obtained at several time points during treatment with BV at the dose of 1.4 or 1.8 mg/kg body weight every 3 weeks. These doses were within the range of doses that were previously determined to be safe and efficacious in the adult population in earlier studies (Younes, et al., N. Engl J Med 363; 19, Nov. 2010).\nThe pharmacokinetic analyses described here included pharmacokinetic data from 30 pediatric patients for the initial analyses."}},
  "data": [
    {"substance": "brentuximab vedotin", "values": [
      {"measurement": "CR, PR, PFS, OS relative to treatments without BV", "setting": "[1]; 71.5 mg/m^2 IV once every three weeks, up to 16 cycles", "result": "one or more of improved CR, PR, PFS, or OS"},
      {"measurement": "CR, PR, PFS, OS of BSA-adjusted doses relative to weight-adjusted dose", "setting": "[1]; 71.5 mg/m^2 versus BV at a weight-adjusted dose", "result": "one or more of improved CR, PR, PFS or OS"},
      {"measurement": "ORR, CR, PFS relative to methotrexate or bexarotene", "setting": "[2]", "result": "one or more of improved ORR, CR or PFS"},
      {"measurement": "systemic exposure to BV as measured by the Area Under the concentration-time Curve (AUC)", "setting": "[3]", "result": "decrease in age from about 18 years led to decrease systemic exposure to BV"}
    ]}
  ]
}
